The source of these data is ChEMBL document CHEMBL5346964, “Discovery of LNP1892: A Precision Calcimimetic for the Treatment of Secondary Hyperparathyroidism” (J Med Chem, 2023).

For orientation: EC50 means the concentration at which the effect is half-maximal. Broadly, the Tmax is the time from dosing to the highest level. As a reminder, the Cmax is the peak of the concentration-time curve. In general, bioavailability refers to dose-corrected exposure relative to a reference, in per cent. Usually AUC(0-t) stands for exposure summed from dosing to a finite time, without extrapolation to infinity. As usually defined, the inhibition is the relative decrease from the control value, in per cent. Usually efflux ratio stands for a quotient of directional permeabilities that is used to spot active efflux. As usually defined, the half-life is the time in which the quantity being followed falls by half.

The target of data set [1] is T1, Extracellular calcium-sensing receptor (Homo sapiens, UniProt P41180).
T1 sequence (P41180 whole entry): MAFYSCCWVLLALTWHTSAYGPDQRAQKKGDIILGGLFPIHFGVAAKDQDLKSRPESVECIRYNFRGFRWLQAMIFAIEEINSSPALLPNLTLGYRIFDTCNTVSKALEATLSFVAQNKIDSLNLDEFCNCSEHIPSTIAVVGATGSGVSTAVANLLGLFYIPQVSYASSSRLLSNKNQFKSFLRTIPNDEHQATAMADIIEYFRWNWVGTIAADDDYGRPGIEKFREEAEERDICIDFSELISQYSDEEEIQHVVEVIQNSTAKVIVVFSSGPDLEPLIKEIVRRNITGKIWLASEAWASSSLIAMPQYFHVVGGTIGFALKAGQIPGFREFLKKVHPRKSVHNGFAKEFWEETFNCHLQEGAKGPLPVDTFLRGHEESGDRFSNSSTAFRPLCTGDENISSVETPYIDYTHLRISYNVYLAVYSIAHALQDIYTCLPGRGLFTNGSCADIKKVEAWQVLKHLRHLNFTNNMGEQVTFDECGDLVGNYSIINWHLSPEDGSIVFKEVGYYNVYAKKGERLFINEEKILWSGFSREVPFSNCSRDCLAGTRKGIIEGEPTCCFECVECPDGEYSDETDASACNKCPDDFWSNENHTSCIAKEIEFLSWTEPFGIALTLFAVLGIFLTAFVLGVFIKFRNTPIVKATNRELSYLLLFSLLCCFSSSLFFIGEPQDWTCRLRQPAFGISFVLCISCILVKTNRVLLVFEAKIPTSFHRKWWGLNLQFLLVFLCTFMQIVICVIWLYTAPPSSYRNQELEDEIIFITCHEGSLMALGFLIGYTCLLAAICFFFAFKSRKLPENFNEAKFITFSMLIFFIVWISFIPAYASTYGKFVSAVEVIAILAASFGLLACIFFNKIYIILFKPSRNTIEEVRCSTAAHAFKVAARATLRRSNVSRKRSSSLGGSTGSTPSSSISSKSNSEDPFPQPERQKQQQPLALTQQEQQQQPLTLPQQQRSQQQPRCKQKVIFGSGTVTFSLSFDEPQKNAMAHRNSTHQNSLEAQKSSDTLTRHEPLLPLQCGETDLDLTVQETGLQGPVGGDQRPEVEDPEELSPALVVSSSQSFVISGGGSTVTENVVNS
Kind of data set: Agonist activity at human CaSR expresssed in HEK293 cells in presence of glucose by Fluo4NW dye based FLIPR assay. Type of data set: functional, cell-based. Particulars: read-out: EC50.

A short description of data set [2]: Tmax in Sprague-Dawley rat at 10 mg/kg, po administered as suspension measured upto 24 hrs by LC-MS/MS analysis. Particulars: in vivo. The format is ADME, organism-based.
Data set [3] is described as follows: Cmax in Sprague-Dawley rat at 10 mg/kg, po administered as solution measured upto 24 hrs by LC-MS/MS analysis. Type of data set: ADME, organism-based. Details: dose 10 mg/kg, time < 24 hrs, route po. The following applies: in vivo.
A short description of data set [4]: Oral bioavailability in Sprague-Dawley rat at 10 mg/kg administered as suspension measured upto 24 hrs by LC-MS/MS analysis. The format is ADME, organism-based. Particulars: in vivo.
Data set [5] is described as follows: Effect on parathyroid hormone in overnight fasted Sprague-Dawley rat assessed as reduction in plasma PTH level at 10 mg/kg, po measured after 0.5 hrs of post treatment by sandwich ELISA analysis. The format is functional. Details: scale not given: the % may be the effect or the level left. For orientation: ELISA stands for enzyme-linked immunosorbent assay.
A short description of data set [6]: Effect on parathyroid hormone in overnight fasted Sprague-Dawley rat assessed as reduction in plasma PTH level at 10 mg/kg, po measured after 6 hrs of post treatment by sandwich ELISA analysis (reference value: 33%). Details: scale not given: the % may be the effect or the level left. The format is functional.
Data set [7] concerns Rattus norvegicus. The experiment in a line: Acute effect on parathyroid hormone in overnight fasted adenine diet-induced chronic kidney disease Wistar rat model assessed as reduction in plasma PTH level at 10 mg/kg, po measured after 1 hrs of post treatment by sandwich ELISA analysis. The format is functional. Details: scale not given: the % may be the effect or the level left.

Data set [8] relates to Rattus norvegicus. Kind of data set: Acute effect on parathyroid hormone in overnight fasted adenine diet-induced chronic kidney disease Wistar rat model assessed as reduction in plasma PTH level at 1 mg/kg, po measured after 2 hrs of post treatment by sandwich ELISA analysis. The format is functional. Details: scale not given: the % may be the effect or the level left.
Data set [9] is described as follows: AUC(0 to 24 hrs) in Sprague-Dawley rat at 30 mg/kg. The format is ADME, organism-based. Details: dose 30 mg/kg. Particulars: in vivo.
Data set [10] is described as follows: Stability in rat plasma measured up to 4 hrs by LC-MS/MS method. Type of data set: ADME, cell-free. Particulars: read-out: Stability.
Data set [11] can be described thus: Protein binding in mouse plasma incubated for 16 hrs under shaking condition by rapid equilibrium dialysis based LC-MS/MS method. The format is ADME, cell-free. Particulars: read-out: PPB.
Data set [12] can be described thus: Protein binding in human plasma incubated for 16 hrs under shaking condition by rapid equilibrium dialysis based LC-MS/MS method. Type of data set: ADME, cell-free. The following applies: read-out: PPB.
A further data set concerns the target T2, CYP1A2 (Homo sapiens, UniProt P05177).
T2 sequence (P05177 whole entry): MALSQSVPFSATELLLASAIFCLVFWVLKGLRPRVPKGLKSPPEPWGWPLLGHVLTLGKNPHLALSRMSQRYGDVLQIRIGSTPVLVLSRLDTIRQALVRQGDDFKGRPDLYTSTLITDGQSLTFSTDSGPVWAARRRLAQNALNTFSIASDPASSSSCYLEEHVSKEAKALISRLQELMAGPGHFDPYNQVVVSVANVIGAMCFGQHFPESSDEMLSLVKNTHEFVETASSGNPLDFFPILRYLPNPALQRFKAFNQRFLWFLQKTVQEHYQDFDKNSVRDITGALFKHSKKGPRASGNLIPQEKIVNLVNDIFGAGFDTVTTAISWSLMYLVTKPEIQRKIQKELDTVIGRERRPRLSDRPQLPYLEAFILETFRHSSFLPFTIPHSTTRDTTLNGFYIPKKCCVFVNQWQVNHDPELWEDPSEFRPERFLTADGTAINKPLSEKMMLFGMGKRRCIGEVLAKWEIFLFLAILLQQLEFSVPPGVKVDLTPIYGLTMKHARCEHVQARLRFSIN
The experiment in a line: Inhibition of CYP1A2 in human liver microsomes at 10 uM preincubated for 5 mins followed by NADPH addition by LC-MS/MS analysis relative to control. Type of data set: ADME, Microsome. (In general: Microsomes from liver hold many membrane-bound enzymes, among them those of drug oxidation.)

Data set [13] can be described thus: Efflux ratio of apparent permeability across basolateral to apical over apical to basolateral membrane in human Caco-2 cells at 5 uM measured after 120 mins by LC-MS/MS analysis. The format is ADME, cell-based. (Caco-2 cells form a polarised layer with tight junctions and transporters.)
A short description of data set [14]: Kinetic solubility of compound in FaSSIF upto 500 uM measured after 16 hrs under shaking condition by UV-visible method. The format is physicochemical. The following applies: read-out: Kinetic_solubility.
The nature of data set [15]: Kinetic solubility of compound in water upto 500 uM measured after 16 hrs under shaking condition by UV-visible method. Type of data set: physicochemical. The following applies: read-out: Kinetic_solubility.
Data set [16] can be described thus: Chemical stability of the compound in SGF measured after 0.5 to 4 hrs. Type of data set: physicochemical. The following applies: simulated gi fluid; time 0.5-4 hrs.
A short description of data set [17]: Oral bioavailability in cynomolgus monkey at 5 mg/kg measured upto 24 hrs by LC/MS-MS analysis. Type of data set: ADME, organism-based, Macaca fascicularis. Particulars: in vivo.
The nature of data set [18]: Half life in BALB/c mouse at 1 mg/kg, iv measured upto 24 hrs by LC/MS-MS analysis. The format is ADME, organism-based. The following applies: in vivo.
The nature of data set [19]: Drug excretion in rat assessed as drug recovery in urine at 1 mg/kg, iv. Type of data set: ADME, organism-based. Particulars: read-out: Drug recovery.
The nature of data set [20]: Ratio of drug concentration in blood to thyroid in Sprague-Dawley rat at 10 mg/kg, po measured upto 24 hrs by LC-MS/MS analysis. The format is ADME, organism-based. The following applies: in vivo.
Data set [21] can be described thus: AUC(0 to t) in human at 25 mg/kg, po administered as multiple dose on day 8. The format is ADME, organism-based. Details: dose 25 mg/kg, route po. Particulars: in vivo.

Turning to `Cc1ccc([C@@H]2C[C@H](CN[C@H](C)c3cccc4ccccc34)Oc3ccccc32)cc1C(=O)O.Cl`, the concentration giving a half-maximal response (EC50) in data set [1] turned out to be 6.4 nM. In addition, in [2], the Tmax turned out to be 1 h. Further, in data set [3], the maximum concentration (Cmax) is 14 µM. In addition, the bioavailability in data set [4] is 33%; in data set [17] it was 100%. The Activity in [5] worked out at 100%; in data set [6], 45%; in the data set on Rattus norvegicus [7], 96%; in the data set with Rattus norvegicus [8], 95%. Besides, the AUC(0-t) was determined as 116 µM·h in [9] and 5090 ng·h/mL in data set [21]. In addition, the remaining at 4 h in data set [10] is greater than 80%. For the same compound, the fraction unbound at 16 h in [11] and in data set [12] was less than 0.01 in each case. On CYP1A2, this compound yielded an inhibition at 10 µM of 0%. Also, the efflux ratio at 2 h, 5 µM in data set [13] worked out at 0.3. In addition, the solubility kinetic at 16 h, 500 µM in [14] and in data set [15] was greater than 300 µM throughout. The Stability entry in [16] is “Stable”. For the same compound, the half-life in data set [18] is 3 h. In addition, the dose excreted in [19] is less than 1%. Moreover, the Ratio in data set [20] stood at 0.3.
